Experiments:
[1] = tested on: 3T3 mouse fibroblast cells; assay: WST-8 (CCK-8) cell viability assay on dressing leachates; type: cell-based; conditions: 24-hour leachate
Source text: The manufacturer's (Sigma-Aldrich) protocol was followed while using CCK-8 kit which utilizes highly water-soluble tetrazolium salt. In the live cells, WST-8 [2-(2-methoxy-4-nitrophenyl)-3-(4-nitrophenyl)-5-(2,4-disulfophenyl)-2H-tetrazolium monosodium salt] is reduced by dehydrogenases to give formazan (an orange-colored product), which can be detected at 450 nm. This means that a noncytotoxic material should generate a higher level of formazan than a relatively cytotoxic material because of WST-8 reduction. To obtain the leachate, samples weighing 10 mg each were added to 10 ml to in the DMEM medium for 24 hours at 37° C. The leachate was later used to grow the cells.
Seeding of cells. A culture of the fibroblast cells was grown in a 75 cm2 T-flask with Dulbecco modified Eagle's medium (DMEM) with 4.5 g/L-glutamine, 4.5 g/L glucose, 1% penicillin-streptomycin and 10% fetal bovine serum (FBS) after thawing a cryopreserved vial of fibroblast cells.^11 The cells could proliferate in an incubator which provided a physiological condition for their growth (5% CO2, 37° C.) until the confluence reached around 80-90%. […] The formula below was used to calculate cell viability.^12
To ensure that the components of wound dressing—CarboSil®, SNAP, TXA, and propolis—are not cytotoxic to the mammalian cells, a 24-hour cytotoxicity study was conducted on mouse fibroblast cells.

[2] = TXA administered within 1 hour of injury; cited from earlier work

Q: With `CC(=O)N[C@H](C(=O)O)C(C)(C)SN=O` (racemic) [SNAP, S-nitroso-N-acetylpenicillamine] as the compound, how does the “cytotoxicity (relative cell viability)” value [1] read?
A: Its value is “non-cytotoxic”.

Q: For `NC[C@H]1CC[C@H](C(=O)O)CC1` [TXA, tranexamic acid], which reduction in deaths [2] is on record?
A: The reduction in deaths was 32%.

Reference: patent US12533439B2, “Antibacterial wound treatments with clot-promoting properties” (University of Georgia Research Foundation, Inc., priority 2019, dated 2026)
